Reference: ChEMBL document CHEMBL5230132, “Cannabinoid Receptor Subtype 2 (CB2R) in a Multitarget Approach: Perspective of an Innovative Strategy in Cancer and Neurodegeneration” (J Med Chem, 2020)

What was measured:
Cannabinoid receptor 1 [1] = biological target: T1, Cannabinoid receptor 1 (Homo sapiens, UniProt P21554); assay: Binding affinity to CB1 receptor (unknown origin) assessed as inhibition constant
Cannabinoid receptor 2 [2] = biological target: T2, Cannabinoid receptor 2 (Homo sapiens, UniProt P34972); assay: Binding affinity to CB2 receptor (unknown origin) assessed as inhibition constant
T2 sequence (P34972 whole entry): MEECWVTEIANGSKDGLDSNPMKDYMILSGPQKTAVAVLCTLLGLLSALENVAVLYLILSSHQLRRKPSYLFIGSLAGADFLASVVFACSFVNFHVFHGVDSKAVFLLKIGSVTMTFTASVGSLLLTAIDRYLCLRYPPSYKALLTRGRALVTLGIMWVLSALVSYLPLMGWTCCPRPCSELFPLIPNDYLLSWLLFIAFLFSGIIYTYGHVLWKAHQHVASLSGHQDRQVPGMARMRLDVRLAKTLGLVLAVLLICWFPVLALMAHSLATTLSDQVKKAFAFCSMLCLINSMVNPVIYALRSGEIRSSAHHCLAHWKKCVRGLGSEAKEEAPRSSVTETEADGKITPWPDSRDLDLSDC

Cannabinoid receptor 2 [3] = biological target: T2, Cannabinoid receptor 2; assay: Binding affinity to human CB2 receptor stably expressed in HEK cells assessed as inhibition constant by […]; type: cell-based
Cannabinoid receptor 1 [4] = biological target: T1, Cannabinoid receptor 1; assay: Displacement of [3H]CP55940 from human CB1 receptor stably expressed in CHO cells at 10 uM by radioligand binding assay relative to control; type: cell-based
[5] = biological target: Cholinesterase (Homo sapiens) (UniProt P06276); assay: Inhibition of human BChE at 10 uM relative to control
Sequence of Cholinesterase (Homo sapiens) (P06276 whole entry): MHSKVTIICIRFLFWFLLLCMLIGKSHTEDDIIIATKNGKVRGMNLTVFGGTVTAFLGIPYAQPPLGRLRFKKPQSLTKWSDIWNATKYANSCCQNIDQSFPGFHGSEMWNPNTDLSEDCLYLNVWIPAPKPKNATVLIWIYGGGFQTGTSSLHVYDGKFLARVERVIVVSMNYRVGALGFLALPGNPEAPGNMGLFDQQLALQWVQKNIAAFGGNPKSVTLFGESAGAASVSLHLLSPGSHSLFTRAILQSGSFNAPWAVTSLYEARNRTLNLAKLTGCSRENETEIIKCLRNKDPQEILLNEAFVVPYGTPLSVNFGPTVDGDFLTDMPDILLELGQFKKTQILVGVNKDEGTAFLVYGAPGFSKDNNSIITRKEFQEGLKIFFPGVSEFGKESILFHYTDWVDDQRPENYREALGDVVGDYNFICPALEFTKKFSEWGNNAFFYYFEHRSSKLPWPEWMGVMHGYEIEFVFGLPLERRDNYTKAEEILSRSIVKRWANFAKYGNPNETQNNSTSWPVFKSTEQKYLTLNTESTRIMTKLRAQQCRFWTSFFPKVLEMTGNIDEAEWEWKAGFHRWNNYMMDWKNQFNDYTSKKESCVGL

Cannabinoid receptor 1 [6] = biological target: T1, Cannabinoid receptor 1; assay: Displacement of [3H]CP55940 from human CB1 receptor
Cannabinoid receptor 2 [7] = biological target: T2, Cannabinoid receptor 2; assay: Displacement of [3H]CP55940 from human CB2 receptor
Cannabinoid receptor 2 [8] = biological target: T2, Cannabinoid receptor 2; assay: Displacement of [3H]CP55940 from CB2 receptor (unknown origin) expressed in HEK cell membrane measured after 90 mins by competitive binding assay; type: cell membranes
Cannabinoid receptor 2 [9] = biological target: T2, Cannabinoid receptor 2; assay: Displacement of [3H]CP55940 from human CB2 receptor expressed in HEK293 cell membrane assessed as inhibition constant incubated for 1 hr by liquid scintillation counting method; type: cell membranes
Cannabinoid receptor 1 [10] = biological target: Cannabinoid receptor 1 (Rattus norvegicus, UniProt P20272); assay: Displacement of [3H]CP55940 from rat brain membrane CB1 receptor assessed as inhibition constant incubated for 1 hr by liquid scintillation counting method; type: cell membranes
Sequence of Cannabinoid receptor 1 (Rattus norvegicus, UniProt P20272) (P20272 whole entry): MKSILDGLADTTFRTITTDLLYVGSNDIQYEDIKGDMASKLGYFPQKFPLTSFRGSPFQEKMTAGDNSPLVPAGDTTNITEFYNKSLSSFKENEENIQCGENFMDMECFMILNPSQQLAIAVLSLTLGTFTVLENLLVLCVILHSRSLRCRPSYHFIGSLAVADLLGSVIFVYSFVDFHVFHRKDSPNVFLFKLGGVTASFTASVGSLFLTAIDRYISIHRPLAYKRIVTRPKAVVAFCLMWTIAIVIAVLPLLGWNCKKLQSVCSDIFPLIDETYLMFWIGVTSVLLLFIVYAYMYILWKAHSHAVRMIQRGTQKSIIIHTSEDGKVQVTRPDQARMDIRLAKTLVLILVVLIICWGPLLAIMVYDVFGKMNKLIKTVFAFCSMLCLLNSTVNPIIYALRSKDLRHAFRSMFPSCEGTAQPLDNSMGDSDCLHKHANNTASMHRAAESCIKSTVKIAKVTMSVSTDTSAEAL

Cannabinoid receptor 1 [11] = biological target: T1, Cannabinoid receptor 1; assay: Binding affinity to human CB1 receptor stably expressing CHO cells assessed as inhibition constant by radioligand binding assay; type: cell-based

T1 sequence (P21554 whole entry): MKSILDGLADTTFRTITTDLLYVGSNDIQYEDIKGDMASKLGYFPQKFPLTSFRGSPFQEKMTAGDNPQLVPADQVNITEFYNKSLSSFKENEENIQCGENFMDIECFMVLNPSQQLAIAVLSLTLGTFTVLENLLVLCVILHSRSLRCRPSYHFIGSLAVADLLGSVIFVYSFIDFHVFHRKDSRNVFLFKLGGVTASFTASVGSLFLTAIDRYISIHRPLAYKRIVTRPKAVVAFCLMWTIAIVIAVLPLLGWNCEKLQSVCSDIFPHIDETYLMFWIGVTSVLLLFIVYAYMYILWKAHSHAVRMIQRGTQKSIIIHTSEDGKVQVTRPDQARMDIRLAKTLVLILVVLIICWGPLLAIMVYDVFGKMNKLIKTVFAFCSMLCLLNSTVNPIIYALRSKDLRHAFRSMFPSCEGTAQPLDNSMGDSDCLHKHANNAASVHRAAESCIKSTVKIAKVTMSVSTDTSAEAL

## CCCn1c(C)c(C(=O)c2ccc3ccccc3c2)c2ccccc21
Cannabinoid receptor 1 [1]
  Ki: 383 nM
Cannabinoid receptor 2 [2]
  Ki: 13.8 nM

## CCOc1ccc(Nc2nc3cc(C(=O)N(CC)CC)ccc3n2CCC(C)C)cc1
Cannabinoid receptor 2 [3]
  Ki: 1.9 nM
Cannabinoid receptor 1 [4]
  Activity: 13%

## CCN(CC)C(=O)c1ccc2c(c1)nc(Nc1ccc(Oc3ccccc3)cc1)n2CCC(C)C
[5]
  inhibition: 2%

## O=C(c1ccc2ccccc2c1)c1cn2c3c(cccc13)OCC2CN1CCOCC1 (stereo not drawn)
Cannabinoid receptor 1 [6]
  Ki: 62.3 nM
Cannabinoid receptor 2 [7]
  Ki: 3.3 nM

## CN1CCCCC1Cn1cc(C(=O)c2cc([N+](=O)[O-])ccc2I)c2ccccc21 (stereo not drawn)
Cannabinoid receptor 2 [8]
  Ki: 7 nM

## CCC(C)(C)c1ccc2c(c1)OC(C)(C)C1CC=C(C)CC21 (stereo not drawn)
Cannabinoid receptor 2 [9]
  Ki: 14 nM
Cannabinoid receptor 1 [10]
  Ki: 2290 nM

## CCOc1ccc(Cc2nc3cc(C(=O)N(CC)CC)ccc3n2CCC(C)C)cc1
Cannabinoid receptor 1 [11]
  Ki: > 5000 nM

## CCCC(C)(C)c1ccc2c(c1)OC(C)(C)C1CC=C(C)CC21 (stereo not drawn)
Cannabinoid receptor 2 [9]
  Ki: 3.4 nM
Cannabinoid receptor 1 [10]
  Ki: 677 nM
